Patent US5614555A, “Amidinophenol derivatives” (Ono Pharmaceutical Co., Ltd., priority 1992, dated 1997)
pIC50: −log10 of the molar value. Where a name gives a salt, the structure may show the parent alone.

Columns and labels:
[1] = biological target: T1, PLA2 (derived from hog pancreas) (Sus scrofa, UniProt P00592); assay: Inhibitory activity on PLA2; assay type: biochemical; conditions: pH7.5, 10PY-PC substrate, fluorescence Ex=345 nm, Em=396 nm
T1 construct: from tissue; host or cells: hog pancreas
Protocol: A reaction solution including 50 mM tris-HCl buffer (pH7.5, 874 μl; containing 100 mM sodium chloride, 1 mM EDTA), 1M calcium chloride (6 μl), 1% bovine serum albumin (10 μl) and 2.5 mM 10PY-PC (10 μl), was prepared. To the solution were added a test compound in various concentration or water (50 μl), and a solution of 10 mU/ml PLA2 (derived from hog pancreas)(50 μl). The appearance of fluorescence was measured (Ex=345 nm, Em=396 nm). Percentage (%) of the strength of fluorescence in the presence of a test compound was calculated when the strength of that in the absence thereof was regarded as 100%, and therefrom IC50 value was calculated.
10PY-PC represents 3'-palmitoyl-2-(1 -pyrenedecanoyl)-L-α-phosphatidycholine, […]

[2] = biological target: T2, trypsin (derived from bovine pancreas) (Bos taurus, UniProt P00760); assay: Inhibitory activity on trypsin; assay type: biochemical; conditions: pH8.0, preincubated one minute at 30° C., BAPNA substrate, 30 min, absorbance at 405 nm
T2 construct: from tissue; host or cells: bovine pancreas
T2 sequence (P00760 24-246): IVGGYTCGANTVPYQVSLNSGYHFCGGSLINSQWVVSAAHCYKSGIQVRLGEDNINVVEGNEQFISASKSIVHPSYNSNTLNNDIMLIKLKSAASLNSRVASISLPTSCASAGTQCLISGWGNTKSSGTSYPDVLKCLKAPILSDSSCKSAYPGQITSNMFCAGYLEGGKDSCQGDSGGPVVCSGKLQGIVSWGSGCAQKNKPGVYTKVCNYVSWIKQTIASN
Protocol: To a mixture of a 0.2M HEPES.sodium hydroxide buffer solution (pH8.0, 100 μl ) and distilled water (640 μl), were added a test compound in various concentration or water (10 μl), and a solution of 80 mU/ml trypsin (derived from bovine pancreas) (50 μl) and then the mixture was preincubated for one minute at 30° C. To the solution thus obtained was added 2.5 mM BAPNA (200 μl) and the mixture was incubated for 30 min. The absorbance at 405 nm was measured. Percentage (%) of the absorbance in the presence of a test compound was calculated when the absorbance in the absence thereof was regarded as 100%, and therefrom IC50 value was calculated.
HEPES represents 4-(2-hydroxyethyl)-1-piperazineethanesulfonic acid, and
BAPNA represents a-N-benzoyl-DL-arginine-p-nitroanilide hydrochloride.

PLA2 = conditions: Japan. J. Pharmacol., 52, 23-34, 1990; cited from earlier work

T1 sequence (P00592 23-146): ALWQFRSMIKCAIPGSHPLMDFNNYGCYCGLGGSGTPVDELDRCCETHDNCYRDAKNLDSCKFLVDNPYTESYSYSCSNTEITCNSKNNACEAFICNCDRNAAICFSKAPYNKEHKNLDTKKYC

pIC50 [1]	pIC50 [2]	Compound	inhibitory activity on PLA2 (in words) (PLA2)
4.20	6.89	CCOC(=O)CC[C@H](NC(=O)/C(C)=C/c1ccc(C(=O)Oc2ccc(C(=N)N)cc2)cc1)C(=O)OCC [1(d), p-(p-amidino-phenoxycarbonyl)-α-methylcinnamicacid N-[1-(S),3-bis-(ethoxycarbonyl)]-propylamidehydrochloride]	
5.28	6.85	CCOC(=O)CN(C(=O)/C(C)=C/c1ccc(C(=O)Oc2ccc(C(=N)N)cc2)cc1)c1ccc(F)cc1 [1(g), p-(p-amidino-phenoxycarbonyl)-α-methylcinnamicacid N-(p-fluoro-phenyl)-N-ethoxy-carbonylmethyl-amidemethanesulfonate]	
4.55	6.89	C=CCN(CC(=O)OCC)C(=O)/C(C)=C/c1ccc(C(=O)Oc2ccc(C(=N)N)cc2)cc1 [1(i), p-(p-amidino-phenoxycarbonyl)-α-methylcinnamicacid N-allyl-N-ethoxycarbonylmethylamideacetate]	
5.51	6.66	CCOC(=O)CN(C(=O)/C=C(\C)c1ccc(C(=O)Oc2ccc(C(=N)N)cc2)cc1)c1ccccc1 [1(k), p-(p-amidino-phenoxycarbonyl)-β-methylcinnamicacid N-phenyl-N-ethoxycarbonyl-methylamidehydrochloride]	
	6.82	CCOC(=O)CN(C(=O)c1ccc(C(=O)Oc2ccc(C(=N)N)cc2C(=O)OC)cc1)c1ccccc1 [1(p), p-(p-amidino-o-methoxycarbonyl-phenoxycarbonyl)-benzoic acid N-phenyl-N-ethoxy-carbonylmethyl-amide acetate]	
4.62	6.66	N=C(N)c1ccc(OC(=O)c2ccc(C(=O)N3CCN(Cc4ccccc4)CC3)cc2)cc1 [1(t), p-(p-amidino-phenoxycarbonyl)-benzoic acid N'-phenylmethyl-piperazinylamidedihydrochloride]	
4.49	6.85	N=C(N)c1ccc(OC(=O)c2ccc(C(=O)N3CCC[C@@H]3C(=O)OCc3ccccc3)cc2)cc1 [2(f), p-(p-amidinophenoxycarbonyl)benzoic acid-N-(2-(R)-benzyloxycarbonyl)pyrrolidinylamideacetic acid]	
5.32	6.85	CCOC(=O)CN(Cc1ccccc1)C(=O)/C(C)=C/c1ccc(C(=O)Oc2ccc(C(=N)N)cc2)cc1 [Example 1, p-(p-Amidinophenoxycarbonyl)-α-methylcinnamic acid N-ethoxycarbonylmethyl-N-phenylmethylamide hydrochloride]	
4.82	6.85	CCOC(=O)CN(C(=O)/C=C/c1ccc(C(=O)Oc2ccc(C(=N)N)cc2)cc1)c1ccccc1 [Example 2(a), p-(p-amidinophenoxycarbonyl)cinnamic acid-N-phenyl-N-ethoxycarbonylmethyl amidehydrochloride]	
	7.00	C=CCN(CC(=O)O)C(=O)/C(C)=C/c1ccc(C(=O)Oc2ccc(C(=N)N)cc2)cc1 [Example 4, p-(p-Amidinophenoxycarbonyl)-α-methylcinnamic acid N-carboxymethyl-N-allylamide methanesulfonate]	
		CN(C)C(=O)COC(=O)Cc1ccc(OC(=O)c2ccc(NC(=N)N)cc2)cc1 [camostat mesylate]	having an inhibitory activity on PLA2
		N=C(N)Nc1ccc(C(=O)Oc2ccc3cc(C(=N)N)ccc3c2)cc1 [nafamostat mesilate]	having an inhibitory activity on PLA2
